The target of assay [1] is APIS mutant ZF degron fused to EGFP (Homo sapiens, UniProt Q96SW2+Q9UKT9, N149P/Q147A/Q150I). As to the kind of experiment: Ratiometric EGFP:mCherry flow cytometry degradation assay, 18 h.
The target of assay [2] is WEIK mutant ZF degron fused to EGFP (Homo sapiens, UniProt Q96SW2+Q9UKT9, N149E/Q147W/Q150I/S154K). The assay is described as above.
Assay [3] concerns the target T1, TRIM28 with C-terminal WEIS degron tag and HiBit tag (Homo sapiens, UniProt Q96SW2+Q9UKT9, N149E/Q147W/Q150I).
T1 construct: pLVX-Sprout-IKZF3 130-189aa Q147W N149E Q150I (WEIS); TRIM28 (fusion partner / protein of interest, gene TRIM28, human entry Q13263 by my knowledge); expressed in transfected cells; host or cells: Jurkat, lentiviral transduction; endogenous TRIM28 knocked out by CRISPR
As to the kind of experiment: HiBiT luminescence degradation assay. Conditions: Jurkat, 24 h. The format is cell-based. For orientation: HiBiT is a short tag that completes a luciferase, so light tracks the accessible tagged protein.

Assay [4] addresses WNIQ mutant ZF degron fused to EGFP (Homo sapiens, UniProt Q96SW2+Q9UKT9, Q147W/Q150I/S154Q). The experiment in a line: Ratiometric EGFP:mCherry flow cytometry degradation assay, 18 h. On the technique in general: A flow cytometer gives signals particle by particle.
Assay [5] deals with WDIA mutant ZF degron fused to EGFP (Homo sapiens, UniProt Q96SW2+Q9UKT9, N149D/Q147W/Q150I/S154A). The assay is described as above.
Chain of WDIA mutant ZF degron fused to EGFP (Q9UKT9 130-189 Q147W/N149D/Q150I/S154A): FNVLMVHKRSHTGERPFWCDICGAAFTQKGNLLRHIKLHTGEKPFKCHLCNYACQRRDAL
Chain of WDIA mutant ZF degron fused to EGFP (Q96SW2 whole entry, the tested form may be a part): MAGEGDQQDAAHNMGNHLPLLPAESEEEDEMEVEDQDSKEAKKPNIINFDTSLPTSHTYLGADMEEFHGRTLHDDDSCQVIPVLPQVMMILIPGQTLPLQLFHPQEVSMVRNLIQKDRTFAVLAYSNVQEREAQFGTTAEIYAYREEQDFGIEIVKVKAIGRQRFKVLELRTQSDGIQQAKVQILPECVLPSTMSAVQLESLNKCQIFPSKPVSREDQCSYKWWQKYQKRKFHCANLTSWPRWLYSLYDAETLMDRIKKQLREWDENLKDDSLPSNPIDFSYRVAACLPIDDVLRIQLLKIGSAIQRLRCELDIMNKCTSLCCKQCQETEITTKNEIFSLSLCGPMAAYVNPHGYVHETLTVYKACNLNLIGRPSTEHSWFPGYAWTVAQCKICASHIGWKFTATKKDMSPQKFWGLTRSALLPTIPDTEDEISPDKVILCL
Chain of WDIA mutant ZF degron fused to EGFP (Q16531 whole entry partner, the tested form may be a part): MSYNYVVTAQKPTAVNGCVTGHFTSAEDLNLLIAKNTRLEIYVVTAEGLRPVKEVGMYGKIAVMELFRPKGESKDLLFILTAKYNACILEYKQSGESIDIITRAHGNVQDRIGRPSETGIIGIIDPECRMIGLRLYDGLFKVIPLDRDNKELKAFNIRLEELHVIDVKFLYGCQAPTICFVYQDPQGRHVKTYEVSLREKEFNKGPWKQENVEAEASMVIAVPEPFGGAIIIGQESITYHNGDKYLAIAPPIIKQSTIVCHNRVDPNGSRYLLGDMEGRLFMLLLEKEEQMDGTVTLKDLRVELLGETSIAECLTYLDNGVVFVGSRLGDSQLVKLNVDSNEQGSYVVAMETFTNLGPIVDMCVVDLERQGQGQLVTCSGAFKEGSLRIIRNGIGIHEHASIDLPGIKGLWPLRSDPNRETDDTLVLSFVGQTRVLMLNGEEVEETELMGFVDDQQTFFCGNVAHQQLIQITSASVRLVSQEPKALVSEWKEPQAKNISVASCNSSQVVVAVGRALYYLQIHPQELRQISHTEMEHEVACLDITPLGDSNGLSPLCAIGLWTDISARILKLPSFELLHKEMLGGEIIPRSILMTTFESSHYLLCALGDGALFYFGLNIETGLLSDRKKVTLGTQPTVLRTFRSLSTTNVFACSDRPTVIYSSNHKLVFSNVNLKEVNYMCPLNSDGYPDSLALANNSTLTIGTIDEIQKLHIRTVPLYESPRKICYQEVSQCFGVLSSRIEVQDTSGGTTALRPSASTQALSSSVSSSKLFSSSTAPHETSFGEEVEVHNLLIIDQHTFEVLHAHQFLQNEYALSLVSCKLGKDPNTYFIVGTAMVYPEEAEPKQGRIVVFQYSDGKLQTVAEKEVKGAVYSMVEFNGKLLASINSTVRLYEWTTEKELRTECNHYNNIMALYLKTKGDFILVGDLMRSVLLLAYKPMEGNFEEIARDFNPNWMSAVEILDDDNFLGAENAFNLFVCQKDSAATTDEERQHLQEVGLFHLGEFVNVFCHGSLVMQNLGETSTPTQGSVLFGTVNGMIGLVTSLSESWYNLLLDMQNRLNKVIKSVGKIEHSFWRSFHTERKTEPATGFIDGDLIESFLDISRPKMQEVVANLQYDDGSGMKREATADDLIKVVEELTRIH

Several values for one entry are separate records, joined by “and”; a condition that tells them apart may be missing. Identical values can stand only once.

Chain of APIS mutant ZF degron fused to EGFP (Q9UKT9 130-189 Q147A/N149P/Q150I): as the sequence (Q9UKT9 130-189 Q147W/N149D/Q150I/S154A) above, with W18A, D20P, A25S counted along it
Chain of APIS mutant ZF degron fused to EGFP (Q96SW2 whole entry, the tested form may be a part): as the sequence (Q96SW2 whole entry, the tested form may be a part) above
Chain of APIS mutant ZF degron fused to EGFP (Q16531 whole entry partner, the tested form may be a part): as the sequence (Q16531 whole entry partner, the tested form may be a part) above
Chain of WNIQ mutant ZF degron fused to EGFP (Q9UKT9 130-189 Q147W/Q150I/S154Q): as the sequence (Q9UKT9 130-189 Q147W/N149D/Q150I/S154A) above, with D20N, A25Q counted along it
Chain of WNIQ mutant ZF degron fused to EGFP (Q96SW2 whole entry, the tested form may be a part): as the sequence (Q96SW2 whole entry, the tested form may be a part) above
Chain of WNIQ mutant ZF degron fused to EGFP (Q16531 whole entry partner, the tested form may be a part): as the sequence (Q16531 whole entry partner, the tested form may be a part) above
Chain of WEIK mutant ZF degron fused to EGFP (Q9UKT9 130-189 Q147W/N149E/Q150I/S154K): as the sequence (Q9UKT9 130-189 Q147W/N149D/Q150I/S154A) above, with D20E, A25K counted along it
Chain of WEIK mutant ZF degron fused to EGFP (Q96SW2 whole entry, the tested form may be a part): as the sequence (Q96SW2 whole entry, the tested form may be a part) above
Chain of WEIK mutant ZF degron fused to EGFP (Q16531 whole entry partner, the tested form may be a part): as the sequence (Q16531 whole entry partner, the tested form may be a part) above
T1 sequence (Q9UKT9 130-189 Q147W/N149E/Q150I): as the sequence (Q9UKT9 130-189 Q147W/N149D/Q150I/S154A) above, with D20E, A25S counted along it
T1 sequence (Q96SW2 whole entry, the tested form may be a part): as the sequence (Q96SW2 whole entry, the tested form may be a part) above

For orientation: DC50 means the concentration giving 50% degradation. The low end stands for a more potent degrader, the high end for a less potent degrader. `CC(C)(C)c1ccc2c(c1)C(=O)N(C1CCC(=O)NC1=O)C2=O` (centres unmarked) [Compound 19]: the DC50 in assay [1] (APIS, Jurkat, 18 h) came out at 74.1 nM; in assay [2] (WEIK, Jurkat, 18 h) it was 42 nM. Also, the pDC50 in assay [1] (APIS, Jurkat, 18 h) is 7.13; in assay [2] (WEIK, Jurkat, 18 h), 7.38. The “Selectivity (WT/mutant)” value in assay [1] (DC50(WT)/DC50(APIS)) is 10.2 and 10; in assay [2] (DC50(WT)/DC50(WEIK)), 18.1.

`CN1CCN(c2ccc3c(c2)C(=O)N(C2CCC(=O)NC2=O)C3=O)CC1` (centres unmarked) [Compound 23]: the half-maximal degradation concentration (DC50) stood at 125 nM in assay [3]; 53.7 nM in assay [4] (WNIQ, Jurkat, 18 h); 28.8 nM in assay [5] (WDIA, Jurkat, 18 h). In assay [3] (with 10 μM), this molecule yielded a D max of 83%. Besides, the “Selectivity (WT/mutant)” value in assay [4] (DC50(WT)/DC50(WNIQ)) is reported as 11.8; in assay [5] (DC50(WT)/DC50(WDIA)), 22.0. For the same molecule, the pDC50 in assay [4] (WNIQ, Jurkat, 18 h) amounted to 7.27; in assay [5] (WDIA, Jurkat, 18 h), 7.54.
